We go through 17 molecules from US9562022B2 (priority 2009, dated 2017).

The subject of series [1] is P23H opsin. Put plainly: Rhodopsin purification and regeneration (pigment formation from P23H opsin produced in the presence of compound). To be noted: P23H opsin treated with 20 μM compound during mutant protein production; relative to pigment formation with vehicle (DMSO) alone.

Counter-ions that a name gives are not always drawn.

In the case of `CC1=C(/C=C/C(=O)N2CC[C@@H](OC(N)=O)C2)C(C)(C)CCC1` [Compound 57, (R,E)-1-(3-(2,6,6-Trimethylcyclohex-1-en-1-yl)acryloyl)pyrrolidin-3-yl carbamate], the “regeneration of 500 nm absorbing pigment upon treatment with retinal” value (from here on “regeneration”) in series [1] is on record as “increase”.
Same read-out and setting: as for `CC1=C(CCC(=O)N2CCN(C(N)=O)CC2)C(C)(C)CCC1` [Compound 51, 4-(3-(2,6,6-Trimethylcyclohex-1-enyl)propanoyl)piperazine-1-carboxamide], the entry is “increase”.
As for `CC1=C(/C=C/C(=O)N2CCN(S(N)(=O)=O)CC2)C(C)(C)CCC1` (as salt: hydrochloride), the melting point is 181 to 183 °C.
In the case of `CC1=C(CNC(=O)N2CCN(C(N)=O)CC2)C(C)(C)CCC1` [Compound 55, N^1-((2,6,6-Trimethylcyclohex-1-en-1-yl)methyl)piperazine-1,4-dicarboxamide], the “regeneration” value in series [1] is recorded as “increase”.
On the same count and under the same terms, as for `CC1=C(/C=C/C(=O)N2CCN(C(N)=O)[C@@H](C)C2)C(C)(C)CCC1` [Compound 52, (S,E)-2-Methyl-4-(3-(2,6,6-trimethylcyclohex-1-enyl)acryloyl)piperazine-1-carboxamide], the entry is “increase”.
Consider `CC1=C(/C=C/C(=O)N2CCC(NC(N)=O)C2)C(C)(C)CCC1` (centres unmarked) [Compound 50, (E)-1-(1-(3-(2,6,6-Trimethylcyclohex-1-enyl)acryloyl)pyrrolidin-3-yl)urea], for which the “regeneration” value in series [1] is listed as “increase”.
On to `CC1=C(/C=C/C(=O)N2CCCN(C(N)=O)CC2)C(C)(C)CCC1` [Compound 13, (E)-4-(3-(2,6,6-Trimethylcyclohex-1-enyl)acryloyl)-1,4-diazepane-1-carboxamide], for which the “regeneration” value in series [1] is “increase”.
The same measure, in the same setting: as for `C#CC1CN(C(=O)/C=C/C2=C(C)CCCC2(C)C)CCN1C(N)=O` (centres unmarked) [Compound 106, (E)-2-Ethynyl-4-(3-(2,6,6-trimethylcyclohex-1-en-1-yl)acryloyl)piperazine-1-carboxamide], the entry is “increase”.
The same measure, in the same setting: as for `CC1=C(/C=C/C(=O)N2CCOCC2)C(C)(C)CCC1` [Compound 6, (E)-1-Morpholino-3-(2,6,6-trimethylcyclohex-1-enyl)prop-2-en-1-one], the entry is “increase”; as for `C[C@H]1CCCC(C)(C)[C@@H]1CCC(=O)N1CCN(C(N)=O)CC1` [Compound 80, 4-(3-((1R,6S)-2,2,6-trimethylcyclohexyl)propanoyl)piperazine-1-carboxamide], “increase”; as for `CC1=C(/C=C/C(=O)N2CCN(C(N)=O)CC2)C(C)(C)CCC1` [Compound 33, (E)-4-(3-(2,6,6-Trimethylcyclohex-1-enyl)acryloyl)piperazine-1-carboxamide], “increase”.
As for `CC1CCCC(C)(C)C1/C=C/C(=O)N1CCN(C(N)=O)CC1` (racemic) [Compound 71, (±)-4-((E)-3-((1,6-anti)-2,2,6-trimethylcyclohexyl)acryloyl)piperazine-1-carboxamide], the “regeneration” value in series [1] is reported as “increase”.
As for `[2H]C1([2H])CCC(C)(C)C(/C=C/C(=O)N2CCN(C(N)=O)CC2)=C1C` [Compound 63, (E)-4-(3-(3,3-Dideutero-2,6,6-trimethylcyclohex-1-en-1-yl)acryloyl)piperazine-1-carboxamide], the “regeneration” value in series [1] is given as “increase”.
Consider `C[C@H]1CCCC(C)(C)[C@@H]1/C=C/C(=O)N1CCN(C(N)=O)CC1` [Compound 73, (+)-4-((E)-3-((1S,6S)-2,2,6-trimethylcyclohexyl)acryloyl)piperazine-1-carboxamide], for which the “regeneration” value in series [1] is listed as “increase”.
Take `CC1=C(/C=C/C(=O)N2CCN(C(N)=O)[C@H](C)C2)C(C)(C)CCC1` [Compound 53, (R,E)-2-Methyl-4-(3-(2,6,6-trimethylcyclohex-1-enyl)acryloyl)piperazine-1-carboxamide]: the “regeneration” value in series [1] is reported as “increase”.
In the case of `CC1=C(/C=C/C(=O)N2CCN(C(N)=S)CC2)C(C)(C)CCC1` [Compound 105, (E)-4-(3-(2,6,6-Trimethylcyclohex-1-en-1-yl)acryloyl)piperazine-1-carbothioamide], the “regeneration” value in series [1] is given as “increase”.
As to `CC1=C(/C=C/C(=O)N2CCN(C(=O)NC(C)C)CC2)C(C)(C)CCC1` [Compound 37, (E)-N-Isopropyl-4-(3-(2,6,6-trimethylcyclohex-1-enyl)acryloyl)piperazine-1-carboxamide], the “regeneration” value in series [1] is “increase”.

The term melting point denotes the temperature of the solid-liquid transition.
